Laboratory results as given in ChEMBL document CHEMBL3217545, “Synthesis and study of 2-acetyl amino-3-[4-(2-amino-5-sulfo-phenylazo)-phenyl]-propionic acid: a new class of inhibitor for hen egg white lysozyme amyloidogenesis” (Medchemcomm, 2013).
Active and inactive are the calls of the source. No cut-off for these calls is given here.

Columns and labels:
[1] = Cytotoxicity against neuronal cells (unknown origin) by MTT assay; type: cell-based; settings: neuron
[2] = target: Lysozyme C (Gallus gallus) (UniProt P00698); experiment: Inhibition of beta-sheet aggregation of hen egg white lysozyme at 2 x 10^-4 M after 15 days by FT-IR spectroscopic analysis
Chain of Lysozyme C (Gallus gallus) (P00698 whole entry): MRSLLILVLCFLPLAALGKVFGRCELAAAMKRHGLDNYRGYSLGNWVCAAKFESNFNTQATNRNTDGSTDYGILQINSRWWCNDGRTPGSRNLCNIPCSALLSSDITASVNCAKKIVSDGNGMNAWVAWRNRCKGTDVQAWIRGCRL

[3] = target: Lysozyme C (Gallus gallus) (UniProt P00698); experiment: Inhibition of hen egg white lysozyme fibrillization at 2 x 10^-4 M after 15 days by congo red dye-based crossed polarized optical microscopic analysis
[4] = target: Lysozyme C (Gallus gallus) (UniProt P00698); experiment: Inhibition of hen egg white lysozyme fibrillization assessed as diameter of granular aggregate at 2 x 10^-4 M after 15 days by atomic force microscopic analysis (reference value: 50 to 80 nm)
[5] = target: Lysozyme C (Gallus gallus) (UniProt P00698); experiment: Inhibition of hen egg white lysozyme fibrillization at 2 x 10^-4 M after 2 weeks by congo red dye-based UV/Vis spectroscopic analysis
[6] = target: Lysozyme C (Gallus gallus) (UniProt P00698); experiment: Binding affinity to hen egg white lysozyme assessed as formation of enzyme/compound complex formation at 2 x 10^-4 M by TCSPC spectroscopic analysis
[7] = target: Lysozyme C (Gallus gallus) (UniProt P00698); experiment: Binding affinity to hen egg white lysozyme at 2 x 10^-4 M by fluorescence spectroscopic analysis
[8] = target: Lysozyme C (Gallus gallus) (UniProt P00698); experiment: Binding affinity to hen egg white lysozyme at 2 x 10^-4 M by UV/Vis spectroscopic analysis
[9] = target: Lysozyme C (Gallus gallus) (UniProt P00698); experiment: Inhibition of hen egg white lysozyme fibrillization at 2 x 10^-4 M up to 100 hrs by Thioflavin T-based fluorescence assay
[10] = target: Lysozyme C (Gallus gallus) (UniProt P00698); experiment: Inhibition of beta-sheet aggregation of hen egg white lysozyme at 2 x 10^-4 M after 15 days by CD spectroscopic analysis

Row | inhibition [2] | inhibition [3] | Activity [4] [nm] | inhibition [5] | Activity [6] | Activity [7] | Activity [8] | inhibition [9] | inhibition [10] | Structure (SMILES) | Activity [1]
1 | Active | Active | 100 | Active | Active | Active | Active | Active | Active | CC(=O)N[C@@H](Cc1ccc(/N=N/c2cc(S(=O)(=O)O)ccc2N)cc1)C(=O)O | Non-toxic
2 | Active | Active | 100 | Active | Active | Active | Active | Active | Active | Nc1ccc(S(=O)(=O)O)cc1/N=N/c1ccc(C[C@H](NC(=O)C(F)(F)F)C(=O)O)cc1 | Non-toxic
